# Data from ChEMBL document CHEMBL3885881, “DrugMatrix”.
# Species: Rattus norvegicus
# Assay: DrugMatrix - Regimen: Daily Repeat
# Format: toxicity, organism-based, Sprague-Dawley
# Parameters: regimen Daily Repeat, gender Male, age 6-8 weeks
# Details: in vivo, po, route oral GAVAGE, vehicle 100 % SALINE; for ABSOLUTE BASOPHIL / ABSOLUTE EOSINOPHIL / ABSOLUTE LYMPHOCYTE / ABSOLUTE MONOCYTE / BASOPHIL / EOSINOPHIL / ERYTHROCYTE COUNT / HEMATOCRIT / HEMOGLOBIN / LEUKOCYTE COUNT / LYMPHOCYTE / MEAN CORPUSCULAR HEMOGLOBIN / MEAN CORPUSCULAR HEMOGLOBIN CONCENTRATION / MEAN CORPUSCULAR VOLUME / MONOCYTE / NEUTROPHIL / PLATELET COUNT: tissue Blood; for ALANINE AMINOTRANSFERASE / ALBUMIN / ALKALINE PHOSPHATASE / ASPARTATE AMINOTRANSFERASE / BLOOD UREA NITROGEN / CARBON DIOXIDE / CHLORIDE / CHOLESTEROL / CREATINE PHOSPHOKINASE / CREATININE / GLUCOSE / LACTATE DEHYDROGENASE / LIPASE / PHOSPHORUS / POTASSIUM / SODIUM / TOTAL BILIRUBIN / TOTAL PROTEIN / URIC ACID: tissue Plasma
# [1] = 0 mg/kg, 72 h, dose level Control, time 3 day
# [2] = 0 mg/kg, 120 h, dose level Control, time 5 day
# [3] = 0 mg/kg, […], dose level Control, time 14 day
# [4] = […], 72 h, dose 7.5 mg/Kg, dose level High, time 3 day
# [5] = […], 120 h, dose 7.5 mg/Kg, dose level High, time 5 day
smiles,measurement,setting,value
"Nc1ncnc2c1ncn2[C@@H]1O[C@H](CO)[C@@H](O)[C@H]1F [2'-BETA-FLUORO-2',3'-DEOXYADENOSINE]",ABSOLUTE BASOPHIL,[1],140 cells/µL
same,ABSOLUTE EOSINOPHIL,[1],43.3 cells/µL
same,ABSOLUTE LYMPHOCYTE,[1],7570 cells/µL
same,ABSOLUTE MONOCYTE,[1],160 cells/µL
same,BASOPHIL,[1],1.47%
same,EOSINOPHIL,[1],0.47%
same,ERYTHROCYTE COUNT,[1],6.68 x10E6/uL
same,HEMATOCRIT,[1],44.33%
same,HEMOGLOBIN,[1],14.43 G/DL
same,LEUKOCYTE COUNT,[1],9.33 x10E3/uL
same,LYMPHOCYTE,[1],81.23%
same,MEAN CORPUSCULAR HEMOGLOBIN,[1],21.67 pg
same,MEAN CORPUSCULAR HEMOGLOBIN CONCENTRATION,[1],32.6 G/DL
same,MEAN CORPUSCULAR VOLUME,[1],66.43 fL
same,MONOCYTE,[1],1.73%
same,NEUTROPHIL,[1],14.7%
same,PLATELET COUNT,[1],1341.67 x10E3/uL
same,ALANINE AMINOTRANSFERASE,[1],31 u/L
same,ALBUMIN,[1],4.03 G/DL
same,ALKALINE PHOSPHATASE,[1],447 u/L
same,ASPARTATE AMINOTRANSFERASE,[1],61.33 u/L
same,BLOOD UREA NITROGEN,[1],15.67 mg/dL
same,CARBON DIOXIDE,[1],43 mmol/L
same,CHLORIDE,[1],103.33 MEQ/L
same,CHOLESTEROL,[1],83.67 mg/dL
same,CREATINE PHOSPHOKINASE,[1],174.33 u/L
same,CREATININE,[1],0.4 mg/dL
same,GLUCOSE,[1],173 mg/dL
same,LACTATE DEHYDROGENASE,[1],87.67 u/L
same,LIPASE,[1],17.33 u/L
same,PHOSPHORUS,[1],10.27 mg/dL
same,POTASSIUM,[1],6.47 MEQ/L
same,SODIUM,[1],143.67 MEQ/L
same,TOTAL BILIRUBIN,[1],0.37 mg/dL
same,TOTAL PROTEIN,[1],6.63 G/DL
same,URIC ACID,[1],1.03 mg/dL
same,ABSOLUTE BASOPHIL,[2],53.3 cells/µL
same,ABSOLUTE EOSINOPHIL,[2],210 cells/µL
same,ABSOLUTE LYMPHOCYTE,[2],8220 cells/µL
same,ABSOLUTE MONOCYTE,[2],200 cells/µL
same,BASOPHIL,[2],0.53%
same,EOSINOPHIL,[2],2.1%
same,ERYTHROCYTE COUNT,[2],7 x10E6/uL
same,HEMATOCRIT,[2],44%
same,HEMOGLOBIN,[2],14.53 G/DL
same,LEUKOCYTE COUNT,[2],10.44 x10E3/uL
same,LYMPHOCYTE,[2],78.07%
same,MEAN CORPUSCULAR HEMOGLOBIN,[2],20.77 pg
same,MEAN CORPUSCULAR HEMOGLOBIN CONCENTRATION,[2],33 G/DL
same,MEAN CORPUSCULAR VOLUME,[2],62.87 fL
same,MONOCYTE,[2],1.87%
same,NEUTROPHIL,[2],16.8%
same,PLATELET COUNT,[2],1104.33 x10E3/uL
same,ALANINE AMINOTRANSFERASE,[2],31.67 u/L
same,ALBUMIN,[2],3.93 G/DL
same,ALKALINE PHOSPHATASE,[2],394.67 u/L
same,ASPARTATE AMINOTRANSFERASE,[2],65.67 u/L
same,BLOOD UREA NITROGEN,[2],15.67 mg/dL
same,CARBON DIOXIDE,[2],40.67 mmol/L
same,CHLORIDE,[2],104.33 MEQ/L
same,CHOLESTEROL,[2],66.33 mg/dL
same,CREATINE PHOSPHOKINASE,[2],346.67 u/L
same,CREATININE,[2],0.33 mg/dL
same,GLUCOSE,[2],176.67 mg/dL
same,LACTATE DEHYDROGENASE,[2],109 u/L
same,LIPASE,[2],14.33 u/L
same,PHOSPHORUS,[2],11.17 mg/dL
same,POTASSIUM,[2],6.53 MEQ/L
same,SODIUM,[2],146 MEQ/L
same,TOTAL BILIRUBIN,[2],0.37 mg/dL
same,URIC ACID,[2],0.97 mg/dL
same,ABSOLUTE BASOPHIL,[3],93.3 cells/µL
same,ABSOLUTE EOSINOPHIL,[3],80 cells/µL
same,ABSOLUTE LYMPHOCYTE,[3],6890 cells/µL
same,ABSOLUTE MONOCYTE,[3],170 cells/µL
same,BASOPHIL,[3],1%
same,EOSINOPHIL,[3],0.83%
same,ERYTHROCYTE COUNT,[3],7.03 x10E6/uL
same,HEMATOCRIT,[3],43.4%
same,HEMOGLOBIN,[3],14.83 G/DL
same,LEUKOCYTE COUNT,[3],8.94 x10E3/uL
same,LYMPHOCYTE,[3],77.93%
same,MEAN CORPUSCULAR HEMOGLOBIN,[3],21.1 pg
same,MEAN CORPUSCULAR HEMOGLOBIN CONCENTRATION,[3],34.17 G/DL
same,MEAN CORPUSCULAR VOLUME,[3],61.77 fL
same,MONOCYTE,[3],1.33%
same,NEUTROPHIL,[3],18%
same,PLATELET COUNT,[3],1097.33 x10E3/uL
same,ALANINE AMINOTRANSFERASE,[3],32 u/L
same,ALBUMIN,[3],3.83 G/DL
same,ALKALINE PHOSPHATASE,[3],334.67 u/L
same,ASPARTATE AMINOTRANSFERASE,[3],69.33 u/L
same,BLOOD UREA NITROGEN,[3],16 mg/dL
same,CARBON DIOXIDE,[3],40 mmol/L
same,CHLORIDE,[3],105.67 MEQ/L
same,CHOLESTEROL,[3],70.33 mg/dL
same,CREATINE PHOSPHOKINASE,[3],144.67 u/L
same,CREATININE,[3],0.3 mg/dL
same,GLUCOSE,[3],177.67 mg/dL
same,LACTATE DEHYDROGENASE,[3],97.67 u/L
same,LIPASE,[3],16.33 u/L
same,PHOSPHORUS,[3],10.83 mg/dL
same,POTASSIUM,[3],5.77 MEQ/L
same,SODIUM,[3],143.33 MEQ/L
same,TOTAL BILIRUBIN,[3],0.33 mg/dL
same,TOTAL PROTEIN,[3],6.37 G/DL
same,URIC ACID,[3],0.17 mg/dL
same,ABSOLUTE BASOPHIL,[4],280 cells/µL
same,ABSOLUTE EOSINOPHIL,[4],220 cells/µL
same,ABSOLUTE LYMPHOCYTE,[4],9970 cells/µL
same,ABSOLUTE MONOCYTE,[4],370 cells/µL
same,BASOPHIL,[4],2.3%
same,EOSINOPHIL,[4],2.07%
same,ERYTHROCYTE COUNT,[4],6.92 x10E6/uL
same,HEMATOCRIT,[4],45.73%
same,HEMOGLOBIN,[4],14.7 G/DL
same,LEUKOCYTE COUNT,[4],12.17 x10E3/uL
same,LYMPHOCYTE,[4],81.03%
same,MEAN CORPUSCULAR HEMOGLOBIN,[4],21.23 pg
same,MEAN CORPUSCULAR HEMOGLOBIN CONCENTRATION,[4],32.1 G/DL
same,MEAN CORPUSCULAR VOLUME,[4],66.07 fL
same,MONOCYTE,[4],3.03%
same,NEUTROPHIL,[4],11.03%
same,PLATELET COUNT,[4],1214.67 x10E3/uL
same,ALANINE AMINOTRANSFERASE,[4],43.33 u/L
same,ALBUMIN,[4],3.93 G/DL
same,ALKALINE PHOSPHATASE,[4],434.67 u/L
same,ASPARTATE AMINOTRANSFERASE,[4],98.33 u/L
same,BLOOD UREA NITROGEN,[4],16 mg/dL
same,CARBON DIOXIDE,[4],43.33 mmol/L
same,CHLORIDE,[4],103 MEQ/L
same,CHOLESTEROL,[4],76.33 mg/dL
same,CREATINE PHOSPHOKINASE,[4],214.67 u/L
same,CREATININE,[4],0.43 mg/dL
same,GLUCOSE,[4],167.67 mg/dL
same,LACTATE DEHYDROGENASE,[4],99.33 u/L
same,LIPASE,[4],12 u/L
same,PHOSPHORUS,[4],11 mg/dL
same,POTASSIUM,[4],7.1 MEQ/L
same,SODIUM,[4],144 MEQ/L
same,TOTAL BILIRUBIN,[4],0.33 mg/dL
same,TOTAL PROTEIN,[4],6.37 G/DL
same,URIC ACID,[4],0.97 mg/dL
same,ABSOLUTE BASOPHIL,[5],86.7 cells/µL
same,ABSOLUTE EOSINOPHIL,[5],120 cells/µL
same,ABSOLUTE LYMPHOCYTE,[5],11100 cells/µL
same,ABSOLUTE MONOCYTE,[5],270 cells/µL
same,BASOPHIL,[5],0.63%
same,EOSINOPHIL,[5],0.9%
same,ERYTHROCYTE COUNT,[5],7.18 x10E6/uL
same,HEMATOCRIT,[5],44.8%
same,HEMOGLOBIN,[5],14.83 G/DL
same,LEUKOCYTE COUNT,[5],13.05 x10E3/uL
same,LYMPHOCYTE,[5],85.27%
same,MEAN CORPUSCULAR HEMOGLOBIN,[5],20.7 pg
same,MEAN CORPUSCULAR HEMOGLOBIN CONCENTRATION,[5],33.13 G/DL
same,MEAN CORPUSCULAR VOLUME,[5],62.43 fL
same,MONOCYTE,[5],2.07%
same,NEUTROPHIL,[5],10.57%
same,PLATELET COUNT,[5],1282.67 x10E3/uL
same,ALANINE AMINOTRANSFERASE,[5],66 u/L
same,ALBUMIN,[5],3.73 G/DL
same,ALKALINE PHOSPHATASE,[5],389.33 u/L
same,ASPARTATE AMINOTRANSFERASE,[5],161.67 u/L
same,BLOOD UREA NITROGEN,[5],16 mg/dL
same,CARBON DIOXIDE,[5],40 mmol/L
same,CHLORIDE,[5],106.67 MEQ/L
same,CHOLESTEROL,[5],69.67 mg/dL
same,CREATINE PHOSPHOKINASE,[5],169 u/L
same,CREATININE,[5],0.4 mg/dL
same,GLUCOSE,[5],172.33 mg/dL
same,LACTATE DEHYDROGENASE,[5],94.33 u/L
same,LIPASE,[5],11.33 u/L
same,PHOSPHORUS,[5],10.2 mg/dL
same,POTASSIUM,[5],6.1 MEQ/L
same,SODIUM,[5],147.33 MEQ/L
same,TOTAL BILIRUBIN,[5],0.3 mg/dL
same,TOTAL PROTEIN,[5],6.03 G/DL
same,URIC ACID,[5],0.97 mg/dL
